22 compounds from US20220033397A1, “PHARMACEUTICAL COMPOUNDS AND THEIR USE AS INHIBITORS OF UBIQUITIN SPECIFIC PROTEASE 19 (USP19)” (ALMAC DISCOVERY LIMITED, priority 2018, published 2022) can be followed below.

The structures appear in SMILES notation. Some results are limits rather than exact numbers.

This experiment deals with T1, Full-length USP19 (Homo sapiens, UniProt O94966).
T1 construct: Full-length USP19 was purchased from Boston Biochem (E-576); purchased Boston Biochem E-576
T1 sequence (O94966 1-1318): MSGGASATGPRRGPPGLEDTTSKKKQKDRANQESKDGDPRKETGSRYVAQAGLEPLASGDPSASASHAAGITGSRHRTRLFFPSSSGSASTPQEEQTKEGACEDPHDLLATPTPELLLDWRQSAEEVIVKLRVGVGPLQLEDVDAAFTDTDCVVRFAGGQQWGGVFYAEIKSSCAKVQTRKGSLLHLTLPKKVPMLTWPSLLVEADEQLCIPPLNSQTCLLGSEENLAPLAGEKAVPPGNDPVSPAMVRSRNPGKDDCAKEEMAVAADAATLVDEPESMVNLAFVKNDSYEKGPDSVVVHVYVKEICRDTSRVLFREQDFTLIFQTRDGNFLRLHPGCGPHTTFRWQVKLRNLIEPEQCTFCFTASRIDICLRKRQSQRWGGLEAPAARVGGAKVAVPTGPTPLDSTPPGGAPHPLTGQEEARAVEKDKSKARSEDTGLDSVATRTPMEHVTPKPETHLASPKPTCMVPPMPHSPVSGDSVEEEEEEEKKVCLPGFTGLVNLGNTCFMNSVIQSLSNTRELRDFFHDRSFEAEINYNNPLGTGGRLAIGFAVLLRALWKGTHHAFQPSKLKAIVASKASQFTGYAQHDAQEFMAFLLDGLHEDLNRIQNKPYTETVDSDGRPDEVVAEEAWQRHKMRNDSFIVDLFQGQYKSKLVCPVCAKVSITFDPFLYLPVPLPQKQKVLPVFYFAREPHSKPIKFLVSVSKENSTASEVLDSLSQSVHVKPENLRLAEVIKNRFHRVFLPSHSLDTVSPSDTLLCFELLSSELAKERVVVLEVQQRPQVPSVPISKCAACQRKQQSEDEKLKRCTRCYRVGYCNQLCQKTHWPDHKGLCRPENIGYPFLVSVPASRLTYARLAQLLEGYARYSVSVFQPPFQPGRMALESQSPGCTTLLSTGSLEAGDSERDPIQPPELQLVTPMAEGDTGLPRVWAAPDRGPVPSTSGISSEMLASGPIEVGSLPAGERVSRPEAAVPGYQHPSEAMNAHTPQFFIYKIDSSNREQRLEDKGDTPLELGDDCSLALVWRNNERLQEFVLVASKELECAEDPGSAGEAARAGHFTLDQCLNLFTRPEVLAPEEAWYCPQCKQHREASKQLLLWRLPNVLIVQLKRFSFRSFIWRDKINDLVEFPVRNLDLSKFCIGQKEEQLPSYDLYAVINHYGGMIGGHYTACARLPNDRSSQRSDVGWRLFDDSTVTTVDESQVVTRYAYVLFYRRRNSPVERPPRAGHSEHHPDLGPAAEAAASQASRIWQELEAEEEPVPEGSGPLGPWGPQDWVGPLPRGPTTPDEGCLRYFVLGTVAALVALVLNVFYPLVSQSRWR
Put plainly: USP19 fluorescence polarisation (FP) homogeneous assay with Ubiquitin-Lys-TAMRA substrate. Type of experiment: biochemical. As to conditions: 2.5 nM USP19, 30 min pre-incubation, average of at least two duplicate experiments. In short, it runs like this:
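Full-length USP19 preincubated 30 min at RT with inhibitor (200 μM to 2 μM series, 8–18 points) before adding 500 nM Ubiquitin-Lys-TAMRA substrate.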
(In fluorescence polarisation assays a small probe gives low polarisation when free and higher when bound to something large.)

What is called IC50 is the concentration at which inhibition is half-maximal. For the compound `O=C(N1CC(C2CC2)C1)N1CCC(O)(Cn2cnc(-c3ccccc3)cc2=O)C2(CCCC2)C1` (stereo not shown) [Example 252, 3-((7-(3-Cyclopropylazetidine-1-carbonyl)-10-hydroxy-7-azaspiro[4.5]decan-10-yl)methyl)-6-phenylpyrimidin-4(3H)-one], the 50% inhibitory concentration (IC50) was in the range of 5 to 50 µM.
Then `O=C(N1CCC(O)(Cn2cnc(-c3ccccc3)cc2=O)C2(CCCC2)C1)N1CCOCC12CCCCC2` (stereo not shown) [Example 261, 3-((10-Hydroxy-7-(4-oxa-1-azaspiro[5.5]undecane-1-carbonyl)-7-azaspiro[4.5]decan-10-yl)methyl)-6-phenylpyrimidin-4(3H)-one], with 5 to 50 µM.
As for `O=C(N[C@H](c1ccccc1)C(F)(F)F)N1CC[C@@](O)(Cn2ccc(-c3ccccc3)cc2=O)C2(CCCC2)C1` [Example 309, (S)-10-Hydroxy-10-((2-oxo-4-phenylpyridin-1(2H)-yl)methyl)-N—((R)-2,2,2-trifluoro-1-phenylethyl)-7-azaspiro[4.5]decane-7-carboxamide], the half-maximal inhibitory concentration (IC50) is less than 0.5 µM.
With `O=C(N[C@H](c1ccccc1)C(F)(F)F)N1CC[C@@](O)(Cn2cnc(-c3ccccc3)cc2=O)C2(CCCC2)C1` [Example 294, (S)-10-Hydroxy-10-((6-oxo-4-phenylpyrimidin-1(6H)-yl)methyl)-N—((R)-2,2,2-trifluoro-1-phenylethyl)-7-azaspiro[4.5]decane-7-carboxamide], the concentration for half-maximal inhibition (IC50) was less than 0.5 µM.
Regarding `COc1ccc(F)cc1-c1cc(=O)n(C[C@]2(O)CCN(C(=O)N3CCNC[C@H]3c3ccccc3)CC23CCCC3)cn1` [Example 384, 6-(5-Fluoro-2-methoxyphenyl)-3-(((S)-10-hydroxy-7-((R)-2-phenylpipera-zine-1-carbonyl)-7-azaspiro[4.5]decan-10-yl)methyl)pyrimi-din-4(3H)-one], the IC50 was less than 0.5 µM.
Then `C[C@H](CC1CCCCC1)C(=O)N1CCC(O)(Cn2c(=O)c3cncnc3n2C)C2(CCCC2)C1` (stereo partly drawn) [Example 174, 2-((7-((R)-3-Cyclohexyl-2-methylpropanoyl)-10-hydroxy-7-azaspiro[4.5]decan-10-yl)methyl)-1-methyl-1,2-dihydro-3H-pyrazolo[3,4-d]pyrimidin-3-one], with 5 to 50 µM; and `C[C@H](CC1CCCCC1)C(=O)N1CCC(O)(Cn2cc(-c3ccncc3)ncc2=O)C(C)(C)C1` (stereo partly drawn) [Example 14, 1-((1-((R)-3-Cyclohexyl-2-methylpropanoyl)-4-hydroxy-3,3-dimethylpiperidin-4-yl)methyl)-5-(pyridin-4-yl)pyrazin-2(1H)-one], with 0.5 to 5 µM; and `O=C(N1CC[C@@](O)(Cn2ccc(N3CCCC3)cc2=O)C2(CCCC2)C1)N1CCNC[C@H]1c1ccccc1` [Example 330, 1-(((S)-10-Hydroxy-7-((R)-2-phenylpiperazine-1-carbonyl)-7-azaspiro[4.5]decan-10-yl)methyl)-4-(pyrrolidin-1-yl)pyridin-2(1H)-one], with less than 0.5 µM.
`CC1(C)CN(C(=O)NCc2ccccc2)CCC1(O)Cn1cnc(-c2ccccc2F)cc1=O` (stereo not shown) [Example 195, N-Benzyl-4-((4-(2-fluorophenyl)-6-oxopyrimidin-1(6H)-yl)methyl)-4-hydroxy-3,3-dimethylpiperidine-1-carboxamide]: the half-inhibitory concentration (IC50) lay in the range of 5 to 50 µM.
In the case of `O=C(NCc1ccco1)N1CC[C@@](O)(Cn2cnc(-c3ccccc3)cc2=O)C2(CCCC2)C1` [Example 219, (S)—N-(Furan-2-ylmethyl)-10-hydroxy-10-((6-oxo-4-phenylpyrimidin-1(6H)-yl)methyl)-7-azaspiro[4.5]decane-7-carboxamide], the half-maximal inhibitory concentration (IC50) is less than 0.5 µM.
Consider `C[C@H](CC(F)(F)F)C(=O)N1CCC(O)(Cn2cc(N=S(C)(C)=O)c(-c3ccccc3)cc2=O)C2(CCCC2)C1` (stereo partly drawn) [Example 75, 5-((Dimethyl(oxo)-λ^6-sulfaneylidene)amino)-1-((10-hydroxy-7-((R)-4,4,4-trifluoro-2-methylbutanoyl)-7-azaspiro[4.5]decan-10-yl)methyl)-4-phenylpyridin-2(1H)-one], for which the half-maximal inhibitory concentration (IC50) was less than 0.5 µM.
Then `C[C@H](CC1CCCCC1)C(=O)N1CCC(O)(Cn2cc(C(=O)N(C)C)ncc2=O)C2(CCCC2)C1` (stereo partly drawn) [Example 10, 4-((7-((R)-3-Cyclohexyl-2-methylpropanoyl)-10-hydroxy-7-azaspiro[4.5]decan-10-yl)methyl)-N,N-dimethyl-5-oxo-4,5-dihydropyrazine-2-carboxamide], with less than 0.5 µM; and `Cc1cccc(-c2cc(=O)n(C[C@]3(O)CCN(C(=O)N4CCNC[C@H]4c4cc(F)ccc4F)CC34CCCC4)cn2)c1` [Example 386, 3-(((S)-7-((R)-2-(2,5-Difluorophenyl)piper-azine-1-carbonyl)-10-hydroxy-7-azaspiro[4.5]decan-10-yl)methyl)-6-(m-tolyl)pyrimidin-4(3H)-one], with less than 0.5 µM.
For the compound `C[C@H](CC1CCCCC1)C(=O)N1CCC(O)(Cn2ccncc2=O)C2(CCCC2)C1` (stereo partly drawn) [Example 3, 1-((7-((R)-3-Cyclohexyl-2-methylpropanoyl)-10-hydroxy-7-azaspiro[4.5]decan-10-yl)methyl)pyrazin-2(1H)-one], the IC50 lay within 0.5 to 5 µM.
Regarding `CN(Cc1ccccc1)C(=O)N1CCC(O)(Cn2cnc(-c3ccccc3F)cc2=O)CC1` [Example 81, N-Benzyl-4-((4-(2-fluorophenyl)-6-oxopyrimidin-1(6H)-yl)methyl)-4-hydroxy-N-methylpiperidine-1-carboxamide], the IC50 was 50 to 250 µM.
Then `C[C@H](CC(F)(F)F)C(=O)N1CCC(O)(Cn2cnc3nc(N4CCOCC4)ncc3c2=O)C2(CCCC2)C1` (stereo partly drawn) [Example 162, 3-((10-Hydroxy-7-((R)-4,4,4-trifluoro-2-methylbutanoyl)-7-azaspiro[4.5]decan-10-yl)methyl)-7-morpholinopyrimido[4,5-d]pyrimidin-4(3H)-one], with 0.5 to 5 µM; and `O=C(N1CC[C@@](O)(Cn2cnc(-c3ccccc3)cc2=O)C2(CCCC2)C1)N1CCNC[C@H]1c1ccc(F)cc1F` [Example 368, 3-(((S)-7-((R)-2-(2,4-Difluoro-phenyl)piper-azine-1-carbonyl)-10-hydroxy-7-azaspiro[4.5]decan-10-yl)methyl)-6-phenylpyrimidin-4(3H)-one], with less than 0.5 µM.
For `C[C@H](CC1CCCCC1)C(=O)N1CCC(O)(Cn2ccc3ccc(F)cc3c2=O)C2(CCCC2)C1` (stereo partly drawn) [Example 121, 2-((7-((R)-3-Cyclohexyl-2-methylpropanoyl)-10-hydroxy-7-azaspiro[4.5]decan-10-yl)methyl)-7-fluoroisoquinolin-1(2H)-one], the IC50 is 0.5 to 5 µM.
Then `O=C(N1CCC(O)(Cn2cnc3cc(F)c(F)cc3c2=O)C2(CCCC2)C1)N1CCNC[C@H]1c1ccccc1` (stereo partly drawn) [Example 170, 6,7-Difluoro-3-((10-hydroxy-7-((R)-2-phenylpiperazine-1-carbonyl)-7-azaspiro[4.5]decan-10-yl)methyl)quinazolin-4(3H)-one], with less than 0.5 µM; and `CCn1cc2c(=O)n(CC3(O)CCN(C(=O)[C@H](C)CC4CCCCC4)CC34CCCC4)cnc2n1` (stereo partly drawn) [Example 152, 5-((7-((R)-3-Cyclohexyl-2-methylpropanoyl)-10-hydroxy-7-azaspiro[4.5]decan-10-yl)methyl)-2-ethyl-2,5-dihydro-4H-pyrazolo[3,4-d]pyrimidin-4-one], with 50 to 250 µM; and `O=C1CN(C(=O)c2ccccc2)CCN1CC1(O)CCN(C(=O)NCc2ccccc2)CC12CCCC2` (stereo not shown) [Example 107, 10-((4-Benzoyl-2-oxopiperazin-1-yl)methyl)-N-benzyl-10-hydroxy-7-azaspiro[4.5]decane-7-carboxamide], with 5 to 50 µM.
For `O=C(N1CC[C@@](O)(Cn2cnc(-c3ccccc3OC(F)F)cc2=O)C2(CCCC2)C1)N1CCNC[C@H]1c1ccccc1` [Example 364, 6-(2-(Difluoro-methoxy)phenyl)-3-(((S)-10-hydroxy-7-((R)-2-phenylpiperazine-1-carbonyl)-7-aza-spiro[4.5]decan-10-yl)methyl)pyrimidin-4(3H)-one], the concentration for half-maximal inhibition (IC50) is less than 0.5 µM.
